The supplement of paper PMC10307832

How the values were obtained:
Test in all cases: relative viability (nuclei count vs DMSO), 5 days (fraction); higher = more cells survive
QS11 + Decitabine = compound: C1CC2=C(C1)C=C(C=C2)OC3=NC(=C4C(=N3)N(C=N4)CC5=CC=C(C=C5)C6=CC=CC=C6)N[C@@H](CC7=CC=CC=C7)CO [QS11] + Nc1ncn([C@H]2C[C@H](O)[C@@H](CO)O2)c(=O)n1 [Decitabine] (partner 2 µM)
How it was run: (§1)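 Nuclei were stained with Hoechst during a one-step fixation (final 0.05% Triton X-100, 1% formaldehyde, 1 ug/ml Hoechst) carried out 5 days after dosing, then counted on 4× images. The cells, lung cancer lines in 1536-well plates, had been dosed by pin tool the day after seeding with one drug alone or a fixed anchor-drug dose plus five library-drug doses (not always all listed) in √10 steps. Relative viability is the nuclei count in treated wells divided by that in vehicle wells, and each value is the median of duplicate plates.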

AZ628 + Dasatinib = compound: CC1=C(C=C(C=C1)NC(=O)C2=CC(=CC=C2)C(C)(C)C#N)NC3=CC4=C(C=C3)N=CN(C4=O)C [AZ628] + Cc1nc(Nc2ncc(C(=O)Nc3c(C)cccc3Cl)s2)cc(N2CCN(CCO)CC2)n1 [Dasatinib] (partner 0.075 µM)
How it was run: as §1

[1] = compound: C[As](C)SC[C@H](NC(=O)CC[C@H](N)C(=O)O)C(=O)NCC(=O)O [Darinaparsin] + CC(=O)Nc1cccc(-n2c(=O)n(C3CC3)c(=O)c3c(Nc4ccc(I)cc4F)n(C)c(=O)c(C)c32)c1 [Trametinib] (partner 0.02 µM)
How it was run: as §1

[2] = compound: C[As](C)SC[C@H](NC(=O)CC[C@H](N)C(=O)O)C(=O)NCC(=O)O [Darinaparsin] + CC(C)C[C@H](NC(=O)[C@H](Cc1ccccc1)NC(=O)c1cnccn1)B(O)O [Bortezomib] (partner 0.002 µM)
How it was run: as §1

Row | Cell Line | relative viability (QS11 + Decitabine; first compound 0.08 µM) | relative viability (QS11 + Decitabine; first compound 0.8 µM) | relative viability (QS11 + Decitabine; first compound 2.53 µM) | relative viability (QS11 + Decitabine; first compound 8 µM) | relative viability (AZ628 + Dasatinib; first compound 0.08 µM) | relative viability (AZ628 + Dasatinib; first compound 0.253 µM) | relative viability (AZ628 + Dasatinib; first compound 0.8 µM) | relative viability (AZ628 + Dasatinib; first compound 2.53 µM) | relative viability (AZ628 + Dasatinib; first compound 8 µM) | relative viability ([1]; first compound 0.08 µM) | relative viability ([1]; first compound 2.53 µM) | relative viability ([1]; first compound 8 µM) | relative viability ([2]; first compound 0.08 µM) | relative viability ([2]; first compound 0.8 µM) | relative viability ([2]; first compound 2.53 µM) | relative viability ([2]; first compound 8 µM) | relative viability (QS11 + Decitabine; first compound 0.253 µM) | relative viability ([1]; first compound 0.8 µM)
1 | HARA | 0.508 | 0.36 | 0.605 | 0.389 | 0.322 | 0.227 | 0.175 | 0.247 | 0.198 | 0.825 | 0.733 | 0.638 | 1.49 | 1.12 | 1.06 | 1.25 |  | 
2 | NCI-H2085 | 0.478 | 0.49 | 0.56 | 0.557 | 0.255 | 0.274 | 0.252 | 0.239 | 0.237 | 0.469 | 0.586 | 0.618 | 0.987 | 0.996 | 1.07 | 1.16 | 0.549 | 0.477
3 | RERF-LC-KJ | 0.765 | 0.619 | 0.692 | 0.524 | 0.737 | 0.72 | 0.752 | 0.75 | 0.64 | 0.933 | 0.93 | 0.817 | 1.33 | 1.14 | 1.14 | 1.12 | 0.691 | 0.933
4 | HCC-78 | 0.687 | 0.662 | 0.797 | 0.719 | 0.514 | 0.338 | 0.417 | 0.394 | 0.367 | 0.823 | 0.879 | 1.24 | 0.464 | 0.59 | 0.482 | 0.55 | 0.772 | 0.673
5 | NCI-H2087 | 0.287 | 0.252 | 0.305 | 0.299 | 0.565 | 0.32 | 0.226 | 0.237 | 0.154 | 0.185 | 0.185 | 0.263 | 1.02 | 0.944 | 0.948 | 1.13 | 0.325 | 0.176
6 | SK-LU-1 | 0.586 | 0.595 | 0.6 | 0.57 |  | 0.179 | 0.231 | 0.208 | 0.22 | 0.625 | 0.382 | 0.521 | 1.58 | 1.19 | 0.871 | 1.33 | 0.59 | 0.401
7 | EMC-BAC-2 | 0.939 | 0.842 | 0.913 | 0.854 | 0.303 | 0.321 | 0.383 | 0.373 | 0.412 | 0.909 | 1.01 | 0.887 | 1.2 | 0.973 | 0.997 | 1.2 | 1.07 | 0.802
8 | A-427 | 0.523 |  | 0.613 | 0.674 | 0.594 | 0.472 | 0.301 | 0.314 | 0.153 | 0.721 | 0.758 | 0.796 | 1.05 | 0.977 | 0.954 | 1.08 | 0.561 | 0.663
9 | NCI-H727 | 0.767 | 0.762 | 0.899 | 0.61 | 0.318 | 0.3 | 0.306 | 0.23 | 0.264 | 0.372 | 0.381 | 0.383 | 0.912 | 0.742 | 0.963 | 0.986 | 0.855 | 0.397
10 | COR-L23 | 0.44 | 0.443 | 0.357 | 0.302 | 0.499 | 0.465 | 0.493 | 0.447 | 0.347 | 0.699 | 0.538 | 0.681 | 1.64 | 0.995 | 0.77 | 1.17 | 0.433 | 0.581
11 | PC-3 [JPC-3] |  | 0.836 | 0.871 | 0.806 | 0.936 | 0.893 | 1.02 | 1.05 | 0.604 | 0.758 | 0.704 | 0.659 | 0.98 | 0.829 | 0.73 | 0.815 | 0.76 | 0.737
12 | NCI-H520 | 0.567 | 0.531 | 0.537 | 0.531 | 0.254 | 0.189 | 0.325 | 0.18 | 0.215 | 0.883 | 0.669 | 0.697 | 0.765 | 0.491 | 0.531 | 0.474 | 0.513 | 0.718
13 | HCC-827 | 0.343 | 0.308 | 0.336 | 0.337 | 0.364 | 0.295 | 0.296 | 0.25 | 0.18 | 0.578 | 0.566 | 0.508 | 1.12 | 1.02 | 1.08 | 1.15 | 0.33 | 0.502
14 | NCI-H1666 | 0.746 | 0.653 | 0.699 | 0.485 | 0.812 | 0.733 | 0.669 | 0.665 | 0.668 | 1.03 | 0.858 | 0.912 | 0.916 | 0.882 | 0.978 | 0.847 | 0.748 | 0.845
15 | NCI-H322M | 0.741 | 0.672 | 0.801 | 0.935 | 0.28 | 0.261 | 0.264 | 0.231 | 0.268 | 0.525 | 0.495 | 0.511 | 1.21 | 1.3 | 1.04 | 1.32 | 0.739 | 0.505
16 | NCI-H838 | 0.494 | 0.43 | 0.422 | 0.411 | 0.287 | 0.291 | 0.297 | 0.274 | 0.284 | 0.54 | 0.504 | 0.666 | 0.976 | 0.766 | 0.679 | 0.811 | 0.483 | 0.458
17 | NCI-H596 | 1.26 | 0.971 | 1.17 | 1.04 | 0.693 | 0.618 | 0.573 | 0.565 | 0.471 | 0.762 | 0.856 | 0.755 | 1.35 | 1.09 | 1 | 1 | 0.87 | 0.748
18 | NCI-H647 | 0.391 | 0.349 | 0.374 | 0.309 | 0.193 | 0.173 | 0.217 | 0.14 | 0.15 | 0.537 | 0.385 | 0.655 | 1.79 | 1.17 | 0.802 | 1.17 | 0.44 | 0.512
19 | NCI-H441 | 0.236 | 0.254 | 0.234 | 0.225 | 0.643 | 0.577 | 0.598 | 0.567 | 0.277 | 0.507 | 0.429 | 0.295 | 0.611 | 0.513 | 0.636 | 0.447 | 0.215 | 0.471
